Measured values reported in US20240317722A1, “HETEROARYL-3-PIPERIDINEDIONE COMPOUND AND USE THEREOF” (Medshine Discovery Inc., priority 2021, published 2024).

How the values were obtained:
DMS114 = test: Anti-proliferative effect in DMS114 (CellTiter-Glo); assay type: cell-based; conditions: DMS114, 3 days; for IC50: Homo sapiens, DMS-114, 72 h
Procedure: This assay studied the inhibitory effect of the compounds on cell proliferation by detecting the effect of the test compounds on the in vitro activity of tumor cells NCI-H1581, DMS114, NCI-H69 and NCI-H526.
The tumor cell lines were cultured in an incubator at 37° C., 5% CO2 or 0% CO2 according to the above culture conditions. The cells were periodically passaged, and cells in logarithmic growth phase were taken for plating. • 2. Cell plating • (1). Cells were stained with trypan blue and viable cells were counted.
• (3). 100 μL of cell suspension was added to each well of the culture plate, and culture medium without cells was added to the blank control well. • (4). The plate was incubated overnight in an incubator at 37° C., 5% CO2 or 0% CO2, and 100% relative humidity. • 3. Preparation of compound stock solution
Preparation of 1000× compound stock solution: Compound was dissolved in DMSO to 10 mM, then a portion was taken out and diluted to 1000 times the highest acting concentration. The diluted stock solution was dispensed for later use. • 4. Preparation of 5× compound working solution and treatment of cells with compounds. The working solutions were prepared freshly at each time for use. • (1). Preparation of 5× compound working solution: 119.4 μL of cell culture medium was added to a 96-well plate with a V-shaped bottom. 96 μL of DMSO-cell culture medium mix solution (with DMSO content of 0.5%) was added to subsequent gradient wells. 0.6 μL of the compound from the 1000× compound stock solution was added to the cell culture medium in the 96-well plate, and mixed to uniform with a pipette. A pipette was used to draw 24 μL of the compound-cell culture medium mixture into subsequent wells, and the mixture was mixed well by a pipette each time. • (2). Dosing: 25 μL of 5× compound working solution was added to the cell culture plate. 25 μL of DMSO-cell culture medium mix solution (with DMSO content of 0.5%) was added to the vehicle control and blank control. • (3). The 96-well cell plate was placed back into the incubator and cultured for 3 days. • 5. CellTiter-Glo luminescence cell viability detection
The following steps were performed according to the instruction of Promega CellTiter-Glo luminescence cell viability detection kit (Promega-G7573). • (1). The CellTiter-Glo buffer was thawed and allowed to stand to reach room temperature; • (2). CellTiter-Glo substrate was allowed to stand to reach room temperature; • (3). 10 mL of CellTiter-Glo buffer was added to CellTiter-Glo substrate in a bottle to dissolve the substrate to formulate CellTiter-Glo working solution; • (4). […] The culture plates were left at room temperature for 10 minutes to stabilize the luminescence signal; • (9). The luminous signal was detected on the 2104 En Vision plate reader. • 6. […]

[1] = test system: human triple-negative breast cancer MDA-MB-231 cells; test: In vivo pharmacodynamic study, subcutaneous xenograft tumor Balb/c nude mouse model of MDA-MB-231 cells; parameters: species or system Balb/c nude mice; conditions: for Tumor volume (Day 0): Day 0 (grouping); for in vivo efficacy on the xenograft tumor model (in words): MDA-MB-231 xenograft, oral
Procedure: Cell culture: Human triple-negative breast cancer MDA-MB-231 cells (ATCC-HTB-26) were cultured in monolayer in vitro. The culture conditions were RPMI-1640 medium with 10% fetal bovine serum in an incubator at 37° C. and 5% CO2. Conventional digestion with trypsin-EDTA was performed once every two days for passage. When the cell saturation was 80%-90% and the number met the requirement, the cells were collected, counted, and inoculated.
Assay animals: Balb/c nude mice, female, 6 weeks old upon arrival, purchased from Shanghai Bikai Experimental Animal Co., Ltd.
Cell inoculation: 0.2 mL (5×10^6 cells) of MDA-MB-231 cells (with matrigel, v/v 1:1) were subcutaneously inoculated into the right back of each mouse. The grouping for administration was started when the average tumor volume reached 110 mm^3. One dosing cycle was seven days, with administration once a day and an interval of 24 hours. The test compound was administered orally for a total of four cycles. The dosages of test compound WX005 were 10 mg/kg, 30 mg/kg and 100 mg/kg respectively, and the dosage of WX013 was 30 mg/kg respectively. Tumor diameter was measured twice a week with a vernier caliper. Tumor volume was calculated by the following formula: V=0.5a×b^2, where a and b are the long and short diameters of the tumor, respectively. The anti-tumor efficacy of compounds was evaluated by TGI (%) or relative tumor proliferation rate T/C (%). Relative tumor proliferation rate T/C (%)=TRTV/CRTV×100% (TRTV: average RTV of the treatment group; CRTV: average RTV of the negative control group). The relative tumor volume (RTV) was calculated based on the results of tumor measurement by the calculation formula: RTV=Vt/V0, where V0 is the tumor volume measured at grouping for administration (i.e., D0), and Vt is the tumor volume at a certain measurement, and TRTV and CRTV are taken on the same day.

Row | SMILES | Max. IR (DMS114) | IC50 (DMS114) | Tumor volume (Day 0) ([1]; 10 mg/kg orally once a day) | Relative tumor proliferation rate T/C (Day 27) ([1]; 10 mg/kg orally once a day) | TGI (Day 27) ([1]; 10 mg/kg orally once a day) | Tumor volume (Day 27) ([1]; 10 mg/kg orally once a day) | in vivo efficacy on the xenograft tumor model (in words) [1] | Tumor volume (Day 0) ([1]; 30 mg/kg orally once a day) | Relative tumor proliferation rate T/C (Day 27) ([1]; 30 mg/kg orally once a day) | TGI (Day 27) ([1]; 30 mg/kg orally once a day) | Tumor volume (Day 27) ([1]; 30 mg/kg orally once a day)
1 | COCCOc1cc(NC(=O)NCc2ccc3c(C4CCC(=O)NC4=O)coc3c2)cc(Cl)c1C (centres unmarked) [WX005] | 89.45% | 6.1 nM | 108.29 mm^3 | 0% | 114.91% | 0 mm^3 | significant tumor shrinkage effect |  |  |  | 
2 | COCCOc1cc(NC(=O)NCc2ccc3c(C4CCC(=O)NC4=O)noc3c2)cc(Cl)c1C (centres unmarked) [WX013] | 87.56% | 2.1 nM |  |  |  |  | significant tumor shrinkage effect | 108.69 mm^3 | 0% | 114.97% | 0 mm^3
